Measured values published in patent US20250353936A1, “CHEMICALLY MODIFIED HEPARIN” (IHP Therapeutics Inc., priority 2022, published 2025).

Key:
[1] = test system: BxPC3-luc, clone 1F11 cells; test: Gemcitabine sparing pancreatic cancer model, subcutaneous BxPC3-luc tumors; type: in vivo, female NSG mice; details: Compound C 10 mg/kg BID s.c., gemcitabine 25 mg/kg QW i.p., day 7 through day 70; FIG. 4
Method: Methods: Pancreatic cancer tumors were generated by subcutaneous injection of 100 μL of BxPC3-luc, clone 1F11 cells (1×10^6) in matrigel into the right flank of female NSG mice. Tumors were allowed to grow for 7 days prior to initiating treatment. At day 7 post-implant, mice were randomized into treatment groups (n=5/group) and treatment was initiated per dose route and regimen as described below:
Gemcitabine (Gem) at a low sensitizing dose was administered 25 mg/kg QW by intraperitoneal route. Compound C was administered 10 mg/kg BID by subcutaneous route. Treatments were administered from day 7 through day 70.
Body weight and tumor volume by caliper was measured weekly. At day 70 imaging was performed by administering 150 mg/kg luciferin and measuring whole body […] by IVIS imaging system. Tumors and organs were then harvested and imaged ex vivo.

[2] = test system: P-selectin; test: P-selectin-mediated HL-60 cell binding to immobilized P-selectin/Fc chimera; type: cell-based; details: HL-60 cells, best-fit values
Method: 96 well plates were coated with 10 μg/mL Protein A overnight, then blocked with 2% FBS for 1 hour. 2 μg/mL P-selectin/Fc chimera was bound to the Protein A for 3 hours at 4° C. HL-60 cells (2e5 cells/well, CMFDA labeled) were then layered onto the P-selectin and allowed to bind for 1 hour at room temperature. Wells were treated concurrently with test samples to determine inhibitory binding activity. After 1 hour, unbound cells were washed and bound cells lysed in a 1% Triton-X solution and read on a Fluorimeter at 480/520 nm.

| P-sel IC50 [2] [mg/L] | Compound | tumor growth inhibition (tumor volume by caliper) [1] |
| --- | --- | --- |
| – | Nc1ccn([C@@H]2O[C@H](CO)[C@@H](O)C2(F)F)c(=O)n1 [Gemcitabine] | no effect on tumor growth |
| 64.72 | enoxaparin | – |
